US20230407304A1, “USE OF MICRORNA INHIBITION TO PREVENT AND TREAT OSTEOARTHRITIS AND OTHER INFLAMMATORY DISEASES” (VIRGINIA COMMONWEALTH UNIVERSITY, priority 2020, published 2023)

Experiments:
[1] = test system: rat articular chondrocytes (rArCs); assay: miR mimic or inhibitor transfection of rArCs with or without TNF-α stimulation; type: cell-based
Procedure: FIGS. 7A-7F show assessment of miR-122 and miR-451 transfection or inhibition on TNF-α stimulated rat articular chondrocytes. rArCs were transfected at 60% confluence with miR-122, miR-451, miR-122-inhibitor (122-Inh), miR-451 inhibitor (451-Inh), or an empty vehicle (Lipo) for 24 hours followed by 24 hours with or without 10 ng/mL TNF-α stimulation. (FIG. 7A, 7D) Total DNA was measured from the cell monolayer and (FIG. 7B, 7E) MMP-13 and (FIG. 7C, 7F) PGE2 proteins were measured from the conditioned media. Groups not sharing a letter (A, B or C over bar) are statistically significant using an alpha=0.05.
Rat articular chondrocytes (rArCs) were isolated using a previously established protocol (see Scott, supra). Briefly, rArCs were isolated from femoral condyles and tibial plateaus from 100-125 g male Sprague Dawley rats. Cartilage was sterilely sliced from the articular surfaces using a surgical blade and placed in Dulbecco's modification of Eagle's medium with 1 g/L glucose, 50 U/mL penicillin and streptomycin (pen-strep) (DMEM). After removing DMEM, cartilage was incubated with 0.05% trypsin (20 mins, 37° C.), rinsed with DMEM (50 U/mL pen-strep, 20 mins, 37° C.), and then digested with sterile-filtered 0.03% collagenase type II solution (Worthington Biochemical, Lakewood, NJ) in Hank's balanced salt solution (16 hrs, 37° C.). Digestion was quenched with an equal volume of DMEM containing 10% fetal bovine serum (FBS) and 50 U/mL pen-strep, strained through a 40 μm strainer (Greiner Bio-one, North Carolina), spun down at 500×g for 10 mins and plated at a seeding density of 15,000 cells/cm^2. These cells are at passage 0. All experiments used cells at passage 1.
rArCs were plated at a seeding density of 15,000 cells/cm^2 and fed with DMEM supplemented with 10% FBS and 50 U/mL pen-strep. Media were changed 24 hours after plating and then every 48 hours. After treatments described below, conditioned media were collected, centrifuged at 1,000×g for 10 mins to remove cellular debris, aliquoted, and stored at −80° C. until assayed. Cell monolayers were rinsed twice with 1 mL of 1×PBS, lysed in 500 μL of 0.05% Triton X-100, and frozen for later DNA analysis. MMP-13 (ANASpec, Fremont, CA) and PGE2 (R&D Systems) were measured in the conditioned media by a microplate reader at ex/em 490 nm/520 nm, and 450 nm absorbance, respectively, in accordance with the manufacturer's directions. Data were normalized to the DNA content of the cell monolayer. Cell layers were thawed, and mechanically lysed by ultrasonication (40V, 10s/well) (VCX-120; Vibra-cell, Newtown, CT) and DNA was measured using QuantiFluor dsDNE system kit (Promega, Madson, WI) and quantified on a fluorescence plate reader at ex/em 504 nm/531 nm. […]

chondrocytes = settings: in vitro studies (Scott; Tang et al.); cited from earlier work
[2] = test system: resting zone and growth zone chondrocytes; assay: microRNA transfection of costochondral resting zone and growth zone chondrocytes; settings: preliminary testing
articular chondrocytes = assay: miR-122 / miR-451 transfection of articular chondrocytes in presence and absence of IL-1β; type: cell-based, rat; settings: miR transfection plus IL-1β stimulation
Text: The following Examples with these microRNAs established their functions in articular chondrocytes in the presence and absence of the inflammatory cytokine IL-1β. Since IL-1β signaling is a major contributor of OA, a well-established model of creating an osteoarthritic phenotype in vitro is to stimulate cell cultures with this cytokine. This study first established that both these microRNAs were elevated in OA in the bilateral ACLT model.
The miR-451 miR (SEQ ID NO:10) was originally chosen as a control miR but it had surprising and very specific functions. […] A series of transfections and inhibition experiments with these microRNAs confirmed that these changes were due to the microRNAs themselves.

In the case of “miR-451: mirVana miRNA mimic rno-miR-451-5p; AAACCGUUACCAUUACUGAGUU (AAACCGUUACCAUUACUGAGUU; listed as RNA, chemistry not given here)”, the “change of total DNA on TNF-α treatment in transfected cells” value ([1]; 14.5 nM mimic 24 hours, then 10 ng/mL TNF-α 24 hours) is given as “did not change total DNA”, the “total DNA after mimic transfection” value ([1]; 14.5 nM mimic, 24 hours, vs Lipo control) is given as “reduced total DNA compared to all groups” and the “apoptosis and cell viability in chondrocytes” value (chondrocytes) is given as “does not induce apoptosis or compromise cell viability”. The proliferation ([2]; transfected costochondral resting zone and growth zone chondrocytes) was “decrease in total DNA and proliferation”, the “total DNA” value ([2]; transfected growth plate chondrocytes) was “decrease in total DNA and proliferation” and the “IL-1β-stimulated MMP-13” value (articular chondrocytes) was “exacerbated production in MMP-13 and PGE2”. For the same substance, the “IL-1β-stimulated PGE2” value (articular chondrocytes) was “exacerbated production in MMP-13 and PGE2”, the “growth factor VEGF” value (articular chondrocytes) was “decreased the growth factor VEGF” and the “inflammatory mediators, cytokines, chemokines (IL-1α, IL-2, IL-4, IL-6, GM-CSF, MIP-1A; RANTES for miR-122)” value (articular chondrocytes) was “increased the inflammatory mediators, cytokines, chemokines”.
